Measurements as given in patent publication US20030232884A1, “New pharmaceutical formulation” (Critical Therapeutics, Inc., priority 2002, published 2003).

Assay: Stability of ethyl pyruvate in three formulations as measured by pH change over time
Assay type: physicochemical
Method: Formulations comprising ethyl pyruvate at various concentrations ([…]) were prepared by dissolving ethyl pyruvate in either commercially available Ringer's Lactate solution (potassium chloride (0 to about 4 mM), sodium chloride (about 100 to about 156 mM), calcium chloride (about 2.5 mM to about 3.0 mM), and sodium lactate (about 25 mM to about 30 mM)) or Ringer-like solution (potassium chloride (0 to about 4 mM), sodium chloride (about 100 to about 156 mM) and calcium chloride (about 2.5 mM to about 3.0 mM)), or Intralipid™ (1 000 mL contain: purified soybean oil 100-300 g, purified egg phospholipids 12 g, glycerol anhydrous 22 g, water for injection q.s. ad 1 000 mL. pH was adjusted with sodium hydroxide to pH approximately 8. Osmolality was about 300 mOsm/kg water). Acidity of each solution was measured at 0, 5, 30 and 60 minutes, 2, 4, 24, and 48 hours after dissolution of ethyl pyruvate.

pH (Intralipid, EP 1 %, 0 min after dissolution): 6.8 | pH (Intralipid, EP 1 %, 5 min after dissolution): 6.8 | pH (Intralipid, EP 1 %, 30 min after dissolution): 6.8 | pH (Intralipid, EP 1 %, 60 min after dissolution): 6.5 | pH (Intralipid, EP 1 %, 2 h after dissolution): 6.5 | pH (Intralipid, EP 1 %, 4 h after dissolution): 6.5 | pH (Intralipid, EP 1 %, 24 h after dissolution): 6.5 | pH (Intralipid, EP 1 %, 48 h after dissolution): 6.5 | pH (Intralipid, EP 5 %, 0 min after dissolution): 6.8 | pH (Intralipid, EP 5 %, 5 min after dissolution): 6.8 | pH (Intralipid, EP 5 %, 30 min after dissolution): 6.5 | pH (Intralipid, EP 5 %, 60 min after dissolution): 6.0 | pH (Intralipid, EP 5 %, 2 h after dissolution): 6.0 | pH (Intralipid, EP 5 %, 4 h after dissolution): 6.0 | pH (Intralipid, EP 5 %, 24 h after dissolution): 5.5 | pH (Intralipid, EP 5 %, 48 h after dissolution): 5.0 | pH (Intralipid, EP 10 %, 0 min after dissolution): 6.8 | pH (Intralipid, EP 10 %, 5 min after dissolution): 6.5 | pH (Intralipid, EP 10 %, 30 min after dissolution): 6.0 | pH (Intralipid, EP 10 %, 60 min after dissolution): 6.0 | pH (Intralipid, EP 10 %, 2 h after dissolution): 6.0 | pH (Intralipid, EP 10 %, 4 h after dissolution): 5.5 | pH (Intralipid, EP 10 %, 24 h after dissolution): 4.0 | pH (Intralipid, EP 10 %, 48 h after dissolution): 4.0 | drop in pH (Lactated Ringers Balanced Salt Solution, 1%, 5% and 10% by weight, over a 48 hour period): relatively reduced drop in pH | pH (Ringer' lactate, EP 1 %, 0 min after dissolution): 6.0 | pH (Ringer' lactate, EP 1 %, 5 min after dissolution): 6.0 | pH (Ringer' lactate, EP 1 %, 30 min after dissolution): 5.5 | pH (Ringer' lactate, EP 1 %, 60 min after dissolution): 5.5 | pH (Ringer' lactate, EP 1 %, 2 h after dissolution): 5.2 | pH (Ringer' lactate, EP 1 %, 4 h after dissolution): 5.2 | pH (Ringer' lactate, EP 1 %, 24 h after dissolution): 5.2 | pH (Ringer' lactate, EP 1 %, 48 h after dissolution): 5.2 | pH (Ringer' lactate, EP 5 %, 0 min after dissolution): 6.0 | pH (Ringer' lactate, EP 5 %, 5 min after dissolution): 5.5 | pH (Ringer' lactate, EP 5 %, 30 min after dissolution): 5.3 | pH (Ringer' lactate, EP 5 %, 60 min after dissolution): 5.2 | pH (Ringer' lactate, EP 5 %, 2 h after dissolution): 5.2 | pH (Ringer' lactate, EP 5 %, 4 h after dissolution): 5.2 | pH (Ringer' lactate, EP 5 %, 24 h after dissolution): 5.2 | pH (Ringer' lactate, EP 5 %, 48 h after dissolution): 5.2 | pH (Ringer' lactate, EP 10 %, 0 min after dissolution): 6.0 | pH (Ringer' lactate, EP 10 %, 5 min after dissolution): 5.3 | pH (Ringer' lactate, EP 10 %, 30 min after dissolution): 5.3 | pH (Ringer' lactate, EP 10 %, 60 min after dissolution): 5.2 | pH (Ringer' lactate, EP 10 %, 2 h after dissolution): 5.2 | pH (Ringer' lactate, EP 10 %, 4 h after dissolution): 5.2 | pH (Ringer' lactate, EP 10 %, 24 h after dissolution): 5.2 | pH (Ringer' lactate, EP 10 %, 48 h after dissolution): 5.0 | pH (Ringer' solution (no lactate), EP 1 %, 0 min after dissolution): 6.5 | pH (Ringer' solution (no lactate), EP 1 %, 5 min after dissolution): 6.5 | pH (Ringer' solution (no lactate), EP 1 %, 30 min after dissolution): 6.5 | pH (Ringer' solution (no lactate), EP 1 %, 60 min after dissolution): 5.5 | pH (Ringer' solution (no lactate), EP 1 %, 2 h after dissolution): 5.5 | pH (Ringer' solution (no lactate), EP 1 %, 4 h after dissolution): 5.5 | pH (Ringer' solution (no lactate), EP 1 %, 24 h after dissolution): 5.5 | pH (Ringer' solution (no lactate), EP 1 %, 48 h after dissolution): 5.5 | pH (Ringer' solution (no lactate), EP 5 %, 0 min after dissolution): 6.5 | pH (Ringer' solution (no lactate), EP 5 %, 5 min after dissolution): 6.0 | pH (Ringer' solution (no lactate), EP 5 %, 30 min after dissolution): 6.0 | pH (Ringer' solution (no lactate), EP 5 %, 60 min after dissolution): 5.2 | pH (Ringer' solution (no lactate), EP 5 %, 2 h after dissolution): 5.2 | pH (Ringer' solution (no lactate), EP 5 %, 4 h after dissolution): 4.0 | pH (Ringer' solution (no lactate), EP 5 %, 24 h after dissolution): 2.0 | pH (Ringer' solution (no lactate), EP 5 %, 48 h after dissolution): 2.0 | pH (Ringer' solution (no lactate), EP 10 %, 0 min after dissolution): 6.5 | pH (Ringer' solution (no lactate), EP 10 %, 5 min after dissolution): 5.5 | pH (Ringer' solution (no lactate), EP 10 %, 30 min after dissolution): 5.3 | pH (Ringer' solution (no lactate), EP 10 %, 60 min after dissolution): 5.2 | pH (Ringer' solution (no lactate), EP 10 %, 2 h after dissolution): 5.2 | pH (Ringer' solution (no lactate), EP 10 %, 4 h after dissolution): 2.0 | pH (Ringer' solution (no lactate), EP 10 %, 24 h after dissolution): 2.0 | pH (Ringer' solution (no lactate), EP 10 %, 48 h after dissolution): 2.0 | stability as indicated by the pH readings (in Ringer's Lactate solution): remains stable
SMILES: CCOC(=O)C(C)=O [Ethyl Pyruvate, ethyl pyruvate]
